Data set [1] relates to Rattus norvegicus. Put plainly: Toxicity in ovariectomized Sprague-Dawley rat osteoporosis model assessed as increase in serum Ca level at 0.02 mg/kg/day administered 5 times a week for 4 weeks measured 24 hrs post last dose (reference value: 9.25 +/- 0.11 mg/dL). It is filed as organism-based. To be noted: in vivo.
In data set [2] the test system is Rattus norvegicus. Put plainly: Toxicity in ovariectomized Sprague-Dawley rat osteoporosis model assessed as increase in serum Ca level at 0.007 mg/kg/day administered 5 times a week for 4 weeks measured 24 hrs post last dose (reference value: 9.25 +/- 0.11 mg/dL). It is filed as organism-based. To be noted: in vivo.
The subject of data set [3] is Rattus norvegicus. The data set can be described thus: Antiosteoporotic activity in ovariectomized Sprague-Dawley rat osteoporosis model assessed as increase in bone mineral density in spine at 0.02 mg/kg/day administered 5 times a week for 4 weeks measured 24 hrs post last dose by dual X-ray absorption meter (reference value: 0.209 +/- 0.011 g/cm'2). It is filed as functional.

The subject of data set [4] is Rattus norvegicus. The data set can be described thus: Antiosteoporotic activity in ovariectomized Sprague-Dawley rat osteoporosis model assessed as increase in bone mineral density in spine at 0.007 mg/kg/day administered 5 times a week for 4 weeks measured 24 hrs post last dose by dual X-ray absorption meter (reference value: 0.209 +/- 0.011 g/cm'2). The data set is classed as functional.

A further data set concerns the target T1, Vitamin D3 receptor (Homo sapiens, UniProt P11473).
T1 sequence (P11473 whole entry): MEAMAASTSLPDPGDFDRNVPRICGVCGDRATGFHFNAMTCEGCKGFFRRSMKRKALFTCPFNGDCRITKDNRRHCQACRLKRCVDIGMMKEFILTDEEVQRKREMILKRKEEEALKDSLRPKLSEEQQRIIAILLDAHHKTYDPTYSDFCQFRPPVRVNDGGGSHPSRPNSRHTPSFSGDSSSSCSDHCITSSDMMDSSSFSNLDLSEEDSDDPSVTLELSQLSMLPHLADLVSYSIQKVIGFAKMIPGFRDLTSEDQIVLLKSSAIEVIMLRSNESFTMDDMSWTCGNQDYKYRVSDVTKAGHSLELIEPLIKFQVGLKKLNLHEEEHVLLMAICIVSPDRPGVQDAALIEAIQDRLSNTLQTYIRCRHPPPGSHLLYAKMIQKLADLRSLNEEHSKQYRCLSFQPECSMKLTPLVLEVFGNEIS
The data set can be described thus: Transactivation of VDR-mediated osteocalcin promoter in human HOS/SF cells after 24 hrs by luciferase reporter gene assay. It is filed as cell-based. Background: Reporter assays use an easily measured gene product as a stand-in for the process of interest.

Data set [5] concerns Rattus norvegicus. Put plainly: Toxicity in ovariectomized Sprague-Dawley rat osteoporosis model assessed as increase in serum Ca level at 0.1 mg/kg/day administered 5 times a week for 4 weeks measured 24 hrs post last dose (reference value: 9.14 +/- 0.24 mg/dL). To be noted: in vivo. The data set is classed as organism-based.
The subject of data set [6] is Rattus norvegicus. Put plainly: Toxicity in ovariectomized Sprague-Dawley rat osteoporosis model assessed as increase in serum Ca level at 0.025 mg/kg/day administered 5 times a week for 4 weeks measured 24 hrs post last dose (reference value: 9.14 +/- 0.24 mg/dL). The data set is classed as organism-based. To be noted: in vivo.
The test system of data set [7] is Rattus norvegicus. The data set can be described thus: Antiosteoporotic activity in ovariectomized Sprague-Dawley rat osteoporosis model assessed as increase in bone mineral density in spine at 0.1 mg/kg/day administered 5 times a week for 4 weeks measured 24 hrs post last dose by dual X-ray absorption meter (reference value: 0.209 +/- 0.019 g/cm'2). It is filed as functional.

Data set [8] concerns Rattus norvegicus. Put plainly: Antiosteoporotic activity in ovariectomized Sprague-Dawley rat osteoporosis model assessed as increase in bone mineral density in spine at 0.025 mg/kg/day administered 5 times a week for 4 weeks measured 24 hrs post last dose by dual X-ray absorption meter (reference value: 0.209 +/- 0.019 g/cm'2). It is filed as functional.

As to `C=C1/C(=C\C=C2/CCC[C@]3(C)[C@@H]([C@H](C)CCCC(C)(C)O)CC[C@@H]23)C[C@@H](O)[C@H](CCn2ncnn2)[C@@H]1O`, the Activity in the data set on Rattus norvegicus [1] was found to be 9.66 mg/dL; in the data set on Rattus norvegicus [2], 9.41 mg/dL; with Rattus norvegicus [3] it was 0.223 g/cm2; with Rattus norvegicus [4], 0.214 g/cm2. The EC50 on Vitamin D3 receptor amounted to 0.01 nM.
For the compound `C=C1/C(=C\C=C2/CCC[C@]3(C)[C@@H]([C@H](C)CCCC(C)(C)O)CC[C@@H]23)C[C@@H](O)[C@H](CCn2cnnn2)[C@@H]1O`, on Vitamin D3 receptor, the EC50 was determined as 0.29 nM.
With `C=C1/C(=C\C=C2/CCC[C@]3(C)[C@@H]([C@H](C)CCCC(C)(C)O)CC[C@@H]23)C[C@@H](O)[C@H](CCn2cncn2)[C@@H]1O`, at Vitamin D3 receptor, the EC50 is 0.15 nM.
On the same count and under the same terms, the same measure for `C=C1/C(=C\C=C2/CCC[C@]3(C)[C@@H]([C@H](C)CCCC(C)(C)O)CC[C@@H]23)C[C@@H](O)[C@H](CCn2nccn2)[C@@H]1O`: 0.044 nM; for `C=C1/C(=C\C=C2/CCC[C@]3(C)[C@@H]([C@H](C)CCCC(C)(C)O)CC[C@@H]23)C[C@@H](O)[C@H](CCn2ccnn2)[C@@H]1O`: 0.21 nM; for `C=C1/C(=C\C=C2/CCC[C@]3(C)[C@@H]([C@H](C)CCCC(C)(C)O)CC[C@@H]23)C[C@@H](O)[C@H](CCn2ccnc2)[C@@H]1O`: 0.68 nM.
Turning to `C=C1/C(=C\C=C2/CCC[C@]3(C)[C@@H]([C@H](C)CCCC(C)(C)O)CC[C@@H]23)C[C@@H](O)C[C@@H]1O` [CALCITRIOL], the Activity with Rattus norvegicus [5] stood at 10.35 mg/dL; in the data set on Rattus norvegicus [6] it was 10.14 mg/dL; in the data set on Rattus norvegicus [7], 0.228 g/cm2; with Rattus norvegicus [8], 0.218 g/cm2.

A word on the EC50: it is the concentration needed to bring the measured effect to its halfway point.

The record behind these values is ChEMBL document CHEMBL2407046, “Synthesis of 2α-heteroarylalkyl active vitamin d3 with therapeutic effect on enhancing bone mineral density in vivo” (ACS Med Chem Lett, 2013).
